From patent US7235577B1 (priority 2000, dated 2007)

Experiments:
[1] = biological target: human cytochrome P450 3A4 (CYP3A4) (Homo sapiens, UniProt P08684); test: in vitro
Experimental: (§1) The test substances shown in Table 8 were evaluated for their inhibitory effect on the catalytic activity of human cytochrome P450 enzyme. Cytochrome P450 3A4 (CYP3A4) is involved in many drug-drug interactions and in many other pathways in the body including the catabolism of steroids and xenobiotics. Inhibition of this enzyme was measured in 96 well plates with 7-benzyloxy-4-trifluoro-methylcoumarin (BFC) as the substrate and cDNA-derived enzymes in microsomes prepared from baculovirus-infected insect cells.
(§2) The inhibition study consisted of the determination of inhibition by the test substance on CYP3A4 catalytic activity. […] The compounds were prepared as 10 mM stock solutions in acetonitrile. Metabolism of the model substrate was assayed by the production of 7-hydroxy-4-trifluoromethylcoumarin metabolite. The metabolite was detected by fluorescence.
(§3) Table 10 below provides a list of the name of enzymes examined, the catalog number of the microsomes used as a source of the enzyme, the concentration of the model substrate used, the amount of enzyme used, the final buffer concentration, and the positive control compound.
(§4) Assays were conducted in 96 well microtiter plates. The BFC substrate was initially prepared in acetonitrile. […] Six wells were used for one test. […] For the positive controls, 12 wells in a row were used for one test. The positive control inhibitor/enzyme combination was examined in duplicate rows. Wells 1 to 8 contained serial 1:3 dilutions of the inhibitors. The highest inhibitor concentration were as described in the table above. Wells 9 and 10 contained no inhibitor and wells 11 and 12 were blanks for background fluorescence (stop solution added before the enzyme).
(§5) After buffer, cofactors and inhibitor addition, the plates were pre-warmed to 37° C. Incubations were initiated by the addition of pre-warmed enzyme and substrate. The final cofactor concentrations were 1.3 mM NADP, 3.3 mM glucose-6-phosphate and 0.4 U/ml glucose-6-phosphate dehydrogenase. The final incubation volume was 0.2 ml. Incubations were carried out for 30 minutes [CYP3A4 (BFC)] and stopped by the addition of 0.075 ml of 80% acetonitrile-20% 0.5M Tris. Fluorescence per well was measured using a BMG FLUOstar fluorescence plate reader. The BFC metabolite 7-hydroxy-4-trifluoromethyl-coumarin was measured using an excitation wavelength of 410 nm and emission wavelength of 538 nm.

CYP3A4 = CYP3A4 (Homo sapiens, UniProt P08684); test: in vitro; settings: human
Experimental: as §1, §2, §3, §4, §5

rKv1.2 = biological target: T1, rKv1.2 (Rattus norvegicus, UniProt P63142); test: Selectivity patch clamp, L929 cells expressing rKv1.2; assay type: cell-based
T1 construct: expressed in transfected cells; host or cells: L929
Experimental: (§6) L929 cells stably expressing mKv1.1, rKv1.2, mKv1.3, and mKv3.1 and MEL cells stably expressing hKv1.5 have been previously described (Grissmer 1994, Mol. Pharmacol. 45: 1227). hKv1.4 and rKv4.2 were stably expressed in LTK (HK1–7). Channel expression was induced 8–12 h before the electrophysiological experiments by 4 μM dexamethasone (Sigma). HEK-293 cells stably expressing the skeletal muscle sodium channel hSkM1 (SCN4A) were generated in the laboratory of Dr. F. Lehmann-Horn. HEK-293 cells stably expressing hSloα were obtained from Dr. Andrew Tinker (Center for Clinical Pharmacology, University College London). L929, MEL, LTK and HEK cells were maintained in DMEM containing 10% heat-inactivated fetal calf serum (Summit Biotechnology, Fort Collins, Colo.) and 250 μg/ml G418 (Life Technologies, Inc.). Rat basophilic leukemia (RBL) cells were maintained in Eagle's minimum essential medium with 2 mM L-glutamine and 10% fetal calf serum. CHO cell were maintained in F12K media (ATCC). Human leukemic Jurkat E6–1 cells were cultured in RPMI 1640 supplemented with 10% fetal calf serum and 1 mM L-glutamine. T84 cells were maintained in a 1:1 mixture of Ham's F12 medium and DMEM with 2.5 mM L-glutamine and 10% fetal calf serum.
(§7) Recordings from the Jurkat SKCa channel were made in K^+ aspartate Ringer (Na^+ was replaced by K^+) with the same internal pipette solution. […]

rKv4.2 = biological target: T2, rKv4.2 (Rattus norvegicus, UniProt Q63881); test: Selectivity patch clamp, LTK cells expressing rKv4.2; assay type: cell-based
T2 construct: expressed in transfected cells; host or cells: LTK (dexamethasone-induced)
Experimental: as §6, §7

COS-7 chloride channel = test: Selectivity patch clamp, native chloride channels in COS-7 cells; assay type: cell-based, African green monkey; settings: native chloride channel of COS-7 cells
Experimental: Electrophysiological experiments were carried out in the whole-cell configuration of the patch-clamp technique using an EPC-9 amplifier (HEKA Elektronik, Lambrecht Germany) interfaced to a computer running acquisition and analysis software (Pulse and Pulsfit; HEKA Elektronik). Pipettes were pulled from soft glass capillaries, coated with Sylgard (Dow-Corning, Midland, Mich.), and fire polished to resistances of 2.0–4.5 MΩ measured in the bath. COS-7 cells were trypsinized and plated on glass coverslips 3 h before measurement. […] To prevent activation of the native chloride channels in COS-7 cells an aspartate Ringer solution was used as an external solution (160 mM Na^+ aspartate, 4.5 mM KCl, 2 mM CaCl2, 1 mM MgCl2, 5 mM HEPES, adjusted to pH 7.4 with NaOH, with an osmolarity of 290–310 mosM). 200 ms voltage ramps from −120 mV to 40 mV every 10 s were used. The holding potential in all experiments was −80 mV. Series resistance compensation was not employed. The reduction of slope conductance at −80 mV was used to determine the Kd-value by fitting the values to the Hill equation with a Hill coefficient of unity.
as §7

hKv1.4 = biological target: T3, hKv1.4 (Homo sapiens, UniProt P22459); test: Selectivity patch clamp, LTK cells expressing hKv1.4; assay type: cell-based
T3 construct: expressed in transfected cells; host or cells: LTK (dexamethasone-induced)
Experimental: as §6, §7

hKv1.5 = biological target: T4, hKv1.5 (Homo sapiens, UniProt P22460); test: Selectivity patch clamp, MEL cells expressing hKv1.5; assay type: cell-based
T4 construct: expressed in transfected cells; host or cells: MEL
Experimental: as §6, §7

[2] = biological target: Kv1.1–1.5, Kv3.1, Kv4.2, Jurkat-SKCa, BKCa, hSKM1-Na, CRAC and lymphocyte chloride channels; test: Selectivity on other cloned and native ion channels; assay type: cell-based; settings: all channels of the panel
Experimental: as §6, §7

mKv3.1 = biological target: T5, mKv3.1 (Mus musculus, UniProt P15388); test: Selectivity patch clamp, L929 cells expressing mKv3.1; assay type: cell-based
T5 construct: expressed in transfected cells; host or cells: L929
Experimental: as §6, §7

Sequence of human cytochrome P450 3A4 (CYP3A4) (P08684 whole entry): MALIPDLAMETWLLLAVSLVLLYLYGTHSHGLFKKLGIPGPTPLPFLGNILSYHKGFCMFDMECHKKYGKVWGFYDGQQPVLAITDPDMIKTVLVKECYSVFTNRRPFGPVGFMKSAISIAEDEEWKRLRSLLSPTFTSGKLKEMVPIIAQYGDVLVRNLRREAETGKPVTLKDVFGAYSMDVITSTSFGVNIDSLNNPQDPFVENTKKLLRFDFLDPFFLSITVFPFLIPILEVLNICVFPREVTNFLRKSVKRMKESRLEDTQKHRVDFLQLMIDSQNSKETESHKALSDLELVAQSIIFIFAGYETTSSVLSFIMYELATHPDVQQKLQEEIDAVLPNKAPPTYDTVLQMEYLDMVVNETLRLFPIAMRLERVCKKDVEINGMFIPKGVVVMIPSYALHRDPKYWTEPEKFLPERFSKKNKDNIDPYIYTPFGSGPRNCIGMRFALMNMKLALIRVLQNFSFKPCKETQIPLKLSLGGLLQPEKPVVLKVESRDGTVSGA
T4 sequence (P22460 whole entry): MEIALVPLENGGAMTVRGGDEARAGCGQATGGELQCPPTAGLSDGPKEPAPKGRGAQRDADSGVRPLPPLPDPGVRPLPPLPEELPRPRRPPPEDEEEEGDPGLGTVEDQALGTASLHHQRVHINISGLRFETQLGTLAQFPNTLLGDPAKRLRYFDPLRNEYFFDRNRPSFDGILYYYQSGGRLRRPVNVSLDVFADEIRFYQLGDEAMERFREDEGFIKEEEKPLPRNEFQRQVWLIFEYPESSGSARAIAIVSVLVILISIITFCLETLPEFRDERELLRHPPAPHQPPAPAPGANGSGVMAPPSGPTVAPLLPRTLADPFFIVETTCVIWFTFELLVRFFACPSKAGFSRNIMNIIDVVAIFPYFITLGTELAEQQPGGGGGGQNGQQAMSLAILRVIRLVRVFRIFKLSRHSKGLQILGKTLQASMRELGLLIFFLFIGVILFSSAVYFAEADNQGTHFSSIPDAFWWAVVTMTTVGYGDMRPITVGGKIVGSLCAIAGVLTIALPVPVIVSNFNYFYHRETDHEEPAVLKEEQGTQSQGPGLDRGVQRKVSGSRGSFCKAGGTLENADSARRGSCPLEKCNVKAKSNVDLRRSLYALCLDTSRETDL
T1 sequence (P63142 whole entry): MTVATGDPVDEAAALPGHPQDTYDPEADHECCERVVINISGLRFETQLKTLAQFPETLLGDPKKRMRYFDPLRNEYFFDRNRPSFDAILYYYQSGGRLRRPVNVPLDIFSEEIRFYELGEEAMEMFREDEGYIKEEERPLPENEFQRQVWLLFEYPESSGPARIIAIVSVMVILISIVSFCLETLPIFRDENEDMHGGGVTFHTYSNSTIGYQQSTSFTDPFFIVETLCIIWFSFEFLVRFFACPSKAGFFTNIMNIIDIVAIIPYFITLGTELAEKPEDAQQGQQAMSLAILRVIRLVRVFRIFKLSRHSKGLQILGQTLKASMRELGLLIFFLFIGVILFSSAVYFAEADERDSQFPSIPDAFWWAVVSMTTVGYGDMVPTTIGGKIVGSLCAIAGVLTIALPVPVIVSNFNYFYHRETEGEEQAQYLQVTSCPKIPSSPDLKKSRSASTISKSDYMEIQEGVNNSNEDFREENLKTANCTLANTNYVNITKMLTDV
T2 sequence (Q63881 whole entry): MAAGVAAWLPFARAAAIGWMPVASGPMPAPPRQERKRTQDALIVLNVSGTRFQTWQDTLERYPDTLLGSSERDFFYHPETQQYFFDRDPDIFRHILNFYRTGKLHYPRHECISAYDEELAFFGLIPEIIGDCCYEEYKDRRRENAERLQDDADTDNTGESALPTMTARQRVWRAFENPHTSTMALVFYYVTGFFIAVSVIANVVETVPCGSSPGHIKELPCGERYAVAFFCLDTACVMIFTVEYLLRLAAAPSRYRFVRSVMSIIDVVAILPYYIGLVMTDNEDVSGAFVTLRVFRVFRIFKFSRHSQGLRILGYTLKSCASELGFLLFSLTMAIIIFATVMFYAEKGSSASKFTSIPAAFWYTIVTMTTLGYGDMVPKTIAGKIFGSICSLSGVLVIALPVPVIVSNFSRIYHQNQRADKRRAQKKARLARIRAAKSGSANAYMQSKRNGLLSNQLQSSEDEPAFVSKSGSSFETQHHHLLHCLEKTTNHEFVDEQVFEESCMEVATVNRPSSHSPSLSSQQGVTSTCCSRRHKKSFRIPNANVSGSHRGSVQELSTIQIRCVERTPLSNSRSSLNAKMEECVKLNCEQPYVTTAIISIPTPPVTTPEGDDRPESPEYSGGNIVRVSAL
Sequence of CYP3A4 (P08684 whole entry): as the sequence (P08684 whole entry) above
T3 sequence (P22459 whole entry): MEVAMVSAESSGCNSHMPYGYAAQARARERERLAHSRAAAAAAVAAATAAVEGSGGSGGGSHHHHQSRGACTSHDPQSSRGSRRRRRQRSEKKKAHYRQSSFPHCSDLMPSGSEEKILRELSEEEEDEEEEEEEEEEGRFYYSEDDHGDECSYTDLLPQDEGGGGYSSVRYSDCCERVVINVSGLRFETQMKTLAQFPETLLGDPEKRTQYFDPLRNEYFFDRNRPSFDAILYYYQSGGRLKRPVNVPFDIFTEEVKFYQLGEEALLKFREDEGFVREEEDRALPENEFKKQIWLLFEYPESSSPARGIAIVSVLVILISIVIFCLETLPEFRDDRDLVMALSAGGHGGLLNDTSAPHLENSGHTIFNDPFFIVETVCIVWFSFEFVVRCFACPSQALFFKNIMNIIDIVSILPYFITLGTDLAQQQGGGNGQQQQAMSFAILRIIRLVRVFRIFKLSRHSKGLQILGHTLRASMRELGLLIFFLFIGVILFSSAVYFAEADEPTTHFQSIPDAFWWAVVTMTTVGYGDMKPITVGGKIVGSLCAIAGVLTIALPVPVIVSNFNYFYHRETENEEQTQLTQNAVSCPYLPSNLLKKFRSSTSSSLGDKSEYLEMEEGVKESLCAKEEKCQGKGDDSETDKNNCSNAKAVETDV
T5 sequence (P15388 whole entry): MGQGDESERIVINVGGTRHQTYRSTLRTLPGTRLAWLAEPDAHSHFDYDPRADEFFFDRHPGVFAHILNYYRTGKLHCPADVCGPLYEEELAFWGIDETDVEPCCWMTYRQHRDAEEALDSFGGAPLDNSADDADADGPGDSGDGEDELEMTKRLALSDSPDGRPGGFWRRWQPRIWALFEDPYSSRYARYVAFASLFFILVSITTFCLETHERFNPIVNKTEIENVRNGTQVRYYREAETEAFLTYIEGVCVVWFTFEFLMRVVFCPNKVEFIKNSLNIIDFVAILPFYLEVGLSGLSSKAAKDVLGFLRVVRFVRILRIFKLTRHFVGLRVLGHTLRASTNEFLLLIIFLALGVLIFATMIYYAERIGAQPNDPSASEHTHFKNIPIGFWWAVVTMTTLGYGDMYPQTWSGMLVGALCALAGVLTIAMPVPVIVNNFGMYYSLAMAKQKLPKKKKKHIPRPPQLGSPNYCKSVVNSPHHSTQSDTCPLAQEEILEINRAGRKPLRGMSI

Clc1ccccc1C(c1ccccc1)(c1ccccc1)n1cccn1 [Compound T34, 1-[(2-Chlorophenyl)diphenylmethyl]-1H-pyrazole]
EC50 for inhibition of CYP3A4 ([1]; T34 tested up to 10 μM): No inhibitory | Inhibition of CYP3A4 activity ([1]; up to 10 μM): does not inhibit the activity of CYP3A4 | inhibition at 30 min, 10 μM (CYP3A4): -77.5% | Kd (rKv1.2): 4.5 ± 0.52 µM | Kd (rKv4.2): 6 ± 0.87 µM | Block of COS-7 (Cl) (COS-7 chloride channel): no effect at 10 μM | Kd (hKv1.4): 7.5 ± 0.41 µM | Kd (hKv1.5): 7 ± 0.62 µM | Kd [2]: ≥ 5 µM | Kd (mKv3.1): 30 ± 5 µM
